Experimental data published in PubChem BioAssay (NCI).
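Cells were grown in 96-well plates and exposed to each compound for 48 hours at five concentrations; endpoints were interpolated linearly between bracketing concentrations, or set to the highest concentration if not reached. GI50 is the concentration that inhibits growth by half. TGI is the concentration that stops growth completely.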

What was measured:
Test in all cases: NCI-60 cell line screen, 48 h
MCF7 breast = system: MCF7 breast
SK-OV-3 ovarian = system: SK-OV-3 ovarian
BT-549 breast = system: BT-549 breast
UACC-62 melanoma = system: UACC-62 melanoma
TK-10 renal = system: TK-10 renal
NCI-H226 lung = system: NCI-H226 lung
A549 NSCLC = system: A549 NSCLC
OVCAR-5 ovarian = system: OVCAR-5 ovarian
SK-MEL-5 melanoma = system: SK-MEL-5 melanoma
SF-539 CNS = system: SF-539 CNS

SMILES	TGI (MCF7 breast)	TGI (SK-OV-3 ovarian)	TGI (BT-549 breast)	TGI (UACC-62 melanoma)	TGI (TK-10 renal)	TGI (NCI-H226 lung)	TGI (A549 NSCLC)	TGI (OVCAR-5 ovarian)	TGI (SK-MEL-5 melanoma)	TGI (SF-539 CNS)	GI50 (MCF7 breast)	GI50 (BT-549 breast)	GI50 (SK-MEL-5 melanoma)	GI50 (SK-OV-3 ovarian)	GI50 (TK-10 renal)	GI50 (NCI-H226 lung)	GI50 (A549 NSCLC)	GI50 (OVCAR-5 ovarian)
COc1cc2nc3n(c(=O)c2cc1OC)CCCCC3	> 100 µM	> 100 µM	> 100 µM	> 100 µM	> 100 µM	> 100 µM	> 100 µM	> 100 µM	> 100 µM									
O=C1C(Cl)C(c2ccc([N+](=O)[O-])cc2)N1n1cnc2ccccc2c1=O (configuration not stated)		50.3 µM		> 100 µM	83.2 µM	> 100 µM	> 100 µM	> 100 µM	> 100 µM									
O=C(CSc1nnc(-c2ccc(N=Cc3ccc(Cl)cc3)cc2)o1)Nc1cccc([N+](=O)[O-])c1		> 100 µM		> 100 µM	> 100 µM	> 100 µM	> 100 µM		> 100 µM									
O=C1CCc2ccccc2O1	> 100 µM	> 100 µM		> 100 µM	> 100 µM	> 100 µM		> 100 µM										
COC(=O)C1CCCN1C(=O)OC(C)(C)C (configuration not stated)	> 100 µM	> 100 µM	> 100 µM	> 100 µM	> 100 µM	> 100 µM	> 100 µM	> 100 µM	> 100 µM									
CCc1n[nH]c(=O)n1N=C(c1ccccc1)c1ccccc1	> 100 µM		> 100 µM	> 100 µM	> 100 µM	> 100 µM	> 100 µM	> 100 µM	> 100 µM									
CC(=O)Nc1ccc(C(=O)n2[nH]c(C)c(/C=C3\C(=O)C=Cc4ccccc43)c2=O)cc1						> 100 µM	> 100 µM	> 100 µM	> 100 µM	> 100 µM								
CCSc1[nH]c(NC(=NC(C)C)NC(=O)c2ccccc2)c(C(N)=O)c1C(N)=O	> 10 µM	> 10 µM		> 10 µM	> 10 µM		> 10 µM		> 10 µM									
COc1cc(CC(=O)c2cc3c(cc2-c2ccccc2)OCO3)cc(OC)c1OC		> 100 µM			> 100 µM	79.3 µM	> 100 µM	> 100 µM	27.1 µM	> 100 µM								
COc1ccc(C=NCCCN=Cc2ccc(OC)cc2O)c(O)c1	> 100 µM		> 100 µM	> 100 µM	> 100 µM	59.3 µM	> 100 µM	> 100 µM										
O=C1C(=Cc2ccc([N+](=O)[O-])o2)C(=O)N(CCc2ccccc2)S(=O)(=O)N1CCc1ccccc1		> 100 µM		31 µM	> 100 µM	41.4 µM	> 100 µM	> 100 µM	44.1 µM	> 100 µM								
N#CC(C#N)C1CN2CCC1CC2 (configuration not stated)	> 100 µM	> 100 µM		> 100 µM	> 100 µM	> 100 µM	> 100 µM	> 100 µM	> 100 µM	> 100 µM								
Cc1ccc(S(=O)(=O)NCCCSCCO)cc1	> 100 µM	> 100 µM			> 100 µM	> 100 µM	> 100 µM		> 100 µM									
CCCCc1c2c(nc3c1CCCC3=O)CCCC2		> 100 µM				65.6 µM	> 100 µM		> 100 µM	> 100 µM								
Cc1cc(N)c2cc(NC(=O)Nc3ccc4nc(C)cc(N)c4c3)ccc2n1	> 100 µM	> 100 µM	> 100 µM	> 100 µM	> 100 µM	> 100 µM	> 100 µM	> 100 µM	> 100 µM									
CC1(C)OC2[C@@H](CO[C@@]3([C@H]4OC(C)(C)O[C@@H]4CO)OC(C)(C)O[C@@H]23)O1 (some centres not stated)	> 100 µM	> 100 µM	> 100 µM	> 100 µM	> 100 µM	> 100 µM	> 100 µM	> 100 µM	> 100 µM									
CCN(CCN(CC)C(=O)NC)C(=O)NC	> 100 µM	> 100 µM	> 100 µM	> 100 µM	> 100 µM	> 100 µM	> 100 µM	> 100 µM	> 100 µM									
C[C@]12CCC(=O)C=C1CC[C@@H]1C2CC[C@@]2(C)C1CC[C@@H]2OC(=O)C12OC1CCC2=O (some centres not stated)		> 100 µM		35.2 µM	35.9 µM	38.2 µM	54.6 µM	33.9 µM	29.7 µM	36.6 µM								
C=C(C)[C@@H]1CCC2=C(CC[C@]3(C)[C@@H]([C@@H](CCC=C(C)C)C(=O)O)[C@H](O)C[C@@]23C)[C@@]1(C)CCC(=O)O		> 100 µM	> 100 µM		> 100 µM	> 100 µM	> 100 µM	> 100 µM	> 100 µM	> 100 µM								

SMILES	TGI (MCF7 breast)	TGI (SK-OV-3 ovarian)	TGI (BT-549 breast)	TGI (UACC-62 melanoma)	TGI (TK-10 renal)	TGI (NCI-H226 lung)	TGI (A549 NSCLC)	TGI (OVCAR-5 ovarian)	TGI (SK-MEL-5 melanoma)	TGI (SF-539 CNS)	GI50 (MCF7 breast)	GI50 (BT-549 breast)	GI50 (SK-MEL-5 melanoma)	GI50 (SK-OV-3 ovarian)	GI50 (TK-10 renal)	GI50 (NCI-H226 lung)	GI50 (A549 NSCLC)	GI50 (OVCAR-5 ovarian)
Brc1ccc(C[N+]23CN4CN(CN(C4)C2)C3)cc1		> 100 µM		30.5 µM	> 100 µM		> 100 µM			> 100 µM								
O=C1NC2OC(CO)C(O)C(O)C2O1 (configuration not stated)		> 100 µM		> 100 µM	> 100 µM		> 100 µM	> 100 µM	> 100 µM	> 100 µM								
O=C(c1cccnc1)N1N=C(c2ccc3c(c2)OCO3)CC1(O)c1cc(F)c(Cl)cc1Cl (configuration not stated)		> 100 µM	47.9 µM		> 100 µM	33.3 µM	> 100 µM	49.4 µM	28.8 µM	33.6 µM								
O=C(NCCC1CN(S(=O)(=O)C(F)(F)F)c2ccccc21)OCc1ccccc1 (configuration not stated)	> 100 µM	> 100 µM	> 100 µM	> 100 µM			> 100 µM	> 100 µM	> 100 µM									
CC(C)(CO)NC(=O)c1cccs1	> 100 µM	> 100 µM		> 100 µM	> 100 µM		> 100 µM	> 100 µM	> 100 µM									
COc1ccc(C2NC3=C(CCCC3)N2)cc1		> 100 µM			> 100 µM	> 100 µM	> 100 µM	> 100 µM	67.5 µM	> 100 µM								
COc1ccccc1[C@@H]1CCC2CC[C@@H](c3ccccc3OC)[N+]21Cc1ccccc1 (some centres not stated)	12.2 µM	11.7 µM	7.63 µM		20.3 µM	6.73 µM	13.1 µM	12.9 µM	1.64 µM									
COc1ccc2nc3c([N+](=O)[O-])ccc(NCCCN(C)C)c3c(N)c2c1	2.5 µM	3.01 µM		3.79 µM	3.46 µM	3.82 µM	3.15 µM	2.75 µM	3.63 µM	3.36 µM								
Nc1ccn(CCCC(c2ccccc2)P(=O)(O)O)c(=O)n1 (configuration not stated)		> 100 µM		> 100 µM	> 100 µM		> 100 µM	> 100 µM	> 100 µM	> 100 µM								
COc1ccc(N2C(=O)C3C=CC(n4[nH]c(=O)n(Cc5ccccc5)c4=O)CC3C2=O)cc1 (configuration not stated)		> 100 µM		> 100 µM	> 100 µM	> 100 µM	> 100 µM	> 100 µM	> 100 µM	> 100 µM								
CCOC(=O)C1=C(O)c2ccc(OC)cc2C(=O)C1=O		> 100 µM		> 100 µM	> 100 µM	> 100 µM	> 100 µM	> 100 µM	> 100 µM	> 100 µM								
CNC(=O)c1cc(Oc2cccc3nc(NC(=O)Nc4ccc(F)cc4F)ccc23)ccn1	> 50 µM		> 50 µM						> 50 µM		1.66 µM	> 50 µM	1.02 µM					
COc1ccc(/C=C(\C2=NC(=O)CS2)c2nc3ccccc3[nH]2)cc1		60 µM		> 100 µM	> 100 µM	28.6 µM	> 100 µM	> 100 µM	> 100 µM	41.9 µM								
COC1=CC(c2ccc[nH]2)=N/C1=C\c1[nH]c(C)c(C)c1CCC(=O)OCc1ccccc1	2.19 µM	5.16 µM	2.9 µM		3.09 µM	2.46 µM	11.1 µM	7.07 µM			0.293 µM	0.378 µM		1.79 µM	0.39 µM	0.377 µM	0.602 µM	0.709 µM
CC(C)(/C=N/O)/[N+]([O-])=C/c1ccccc1	> 100 µM	> 100 µM		> 100 µM	> 100 µM	> 100 µM	> 100 µM	> 100 µM	> 100 µM	> 100 µM								
COC(=O)C1Cc2c([nH]c3ccccc23)-c2[nH]c3ccccc3c2CC(NC(C)=O)C(=O)N2CCCC2C(=O)N1 (configuration not stated)	> 100 µM	> 100 µM		> 100 µM	> 100 µM	18.3 µM	> 100 µM	> 100 µM	> 100 µM	> 100 µM								
COc1ccc(OC)c(-c2cc(=O)c3cc4c(cc3[nH]2)OCO4)c1		17.7 µM		> 100 µM	> 83.3 µM	55.6 µM	> 71.3 µM	> 100 µM	28 µM	16.2 µM								
Cc1cc2c(cc1-c1cc3c(cc1C)C(C(C)C)=C(O)C(=O)/C3=C\Nc1ccccn1)/C(=C/Nc1ccccn1)C(=O)C(O)=C2C(C)C	> 100 µM			> 100 µM	> 100 µM	77.8 µM	> 100 µM	> 100 µM	> 100 µM	> 100 µM								
O=P(Nc1cccc(Cl)c1)(Oc1ccccc1)N(CCCl)CCCl (configuration not stated)		> 100 µM		24.4 µM	30.6 µM	29.6 µM	29.2 µM	28.8 µM	25.3 µM	31.2 µM								
